Holding throughout (assay): NCI-60 cell line screen, 48 h
The test system of test [1] is UACC-257 melanoma.
Test [2] has as its system MDA-MB-435.
In test [3] the test system is TK-10 renal.
Test [4] has as its system SW-620 colon.
The test system of test [5] is SK-MEL-2 melanoma.
Test [6] deals with SK-MEL-5 melanoma.
Test [7] has as its system NCI-H226 lung.
Test [8] relates to NCI/ADR-RES ovarian.
The subject of test [9] is M14 melanoma.
Test [10] deals with UACC-62 melanoma.
Test [11] deals with HT29 colon.

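Exposure lasted 48 hours, with cells grown in 96-well plates and compounds tested at five concentrations. At the TGI there is no net growth.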

Take `Cc1ccc(S(=O)(=O)c2[nH]cc(/C(=C\C3CCCCC3)[N+](=O)[O-])c2C2CCCCC2)cc1`: the TGI was 1.2 µM in test [1]; above 100 µM in [2]; 2.08 µM in [3]; 3.67 µM in test [4]; 1.82 µM in test [5]; 1.21 µM in test [6]. For the same compound, the TGI was 9.9 µM in test [7]; 19.9 µM in [8]; 1.15 µM in test [9]; 0.625 µM in [10]; above 100 µM in [11].

For the compound `CC(=O)N(C(C)=O)c1ncc(-n2nc(-c3ccccc3)cc2-c2ccccc2)c(-c2ccccc2)n1`, the TGI in [1], in [2], in [3], in test [4], in test [5] and in test [6] was above 10 µM throughout. Besides, the TGI in test [7], in test [8], in test [9], in [10] and in [11] was above 10 µM each time.

In the case of `c1ccc(N=C(N2CCCC2)N(CCN2CCCC2)c2ccccc2)cc1`, the TGI in test [1] is 67.6 µM; in test [2], above 100 µM; in test [3], above 100 µM; in [4], above 100 µM; in test [5] it was above 100 µM; in [6], 24.5 µM. Further, the TGI in test [7] was above 100 µM; in test [8], above 100 µM; in test [9] it was 27 µM; in test [10], above 100 µM; in test [11] it was 14.8 µM.

For the compound `Cc1ccc(-c2c(C#N)c(-c3ccc(C)cc3)n(NS(=O)(=O)c3ccccc3)c(=O)c2C#N)cc1`, the TGI was above 100 µM in test [1]; above 100 µM in test [2]; above 100 µM in test [3]; above 100 µM in [4]; above 100 µM in test [5]; 31.2 µM in test [6]. Besides, the TGI in test [7], in test [8], in [9], in [10] and in test [11] was above 100 µM in each case.

With `CO/N=C(\C)c1ccc(Nc2nc3ccccc3c3occc23)cc1`, the TGI stood at 31.4 µM in test [1]; 31.1 µM in test [2]; 25.4 µM in [3]; 33.4 µM in [5]; 29.8 µM in [6]; 24 µM in test [7]. Moreover, the TGI in [8] is 32.1 µM; in test [9] it was 30.2 µM; in [10], 24.7 µM; in test [11], 14.5 µM.

On to `O=C(Nc1ccccc1)c1cc(S(=O)(=O)NC2=NC(c3ccccc3)c3cc(Cl)ccc3N2)c(SSc2cc(Cl)c(C(=O)Nc3ccccc3)cc2S(=O)(=O)NC2=NC(c3ccccc3)c3cc(Cl)ccc3N2)cc1Cl` (stereo unspecified), for which the TGI in [1], in [2], in [3], in test [4], in test [5] and in test [6] was above 100 µM each time. The TGI in [7], in test [8], in test [9], in test [10] and in test [11] was above 100 µM each time.

Regarding `N#CC1C(=S)NC(c2ccccc2)=CC12CCCCC2` (stereo unspecified), the TGI is above 100 µM in test [1]; 40.3 µM in [2]; 54.9 µM in test [3]; above 100 µM in test [4]; 55.8 µM in [5]; 90.4 µM in test [6]. Also, the TGI is 77.4 µM in [7]; above 100 µM in [8]; 84.9 µM in test [9]; 42.7 µM in [10]; above 100 µM in test [11].

For `Cc1c(C)c2c(c(N)c1C#N)C(=O)N(NC(=O)c1ccccc1)C2=O`, the TGI in test [1], in test [2], in test [3], in [4], in test [5] and in test [6] was above 100 µM throughout. Further, the TGI in test [7], in test [8], in test [9] and in test [10] was above 100 µM throughout.

Consider `COc1cc(OC)c2nc(C)c(CCCl)c(Cl)c2c1`, for which the TGI in [1], in test [2], in [3], in test [4], in [5] and in test [7] was above 100 µM in each case. In addition, the TGI in test [8], in test [9], in test [10] and in test [11] was above 100 µM each time.

On to `CC1(C)[C@@H](Cn2ccc(=O)[nH]c2=O)CC[C@@]1(C)CO`, for which the TGI in [1], in [2], in [3], in [4], in [5] and in test [6] was above 100 µM each time. Also, the TGI in test [7], in test [8], in [9] and in test [10] was above 100 µM throughout.

`CC1=NN(c2nc(N)nc(/C(C#N)=C\c3ccc([N+](=O)[O-])s3)n2)C(C)(C)C1`: the TGI worked out at 0.544 µM in test [1]; 0.405 µM in test [2]; 1.26 µM in test [3]; 1.66 µM in test [5]; 1.84 µM in [6]; 8.18 µM in [7]. Also, the TGI in test [8] came out at 12.8 µM; in test [9], 0.8 µM; in [10], 2.25 µM; in test [11], 0.722 µM.

For `CC(=O)Nc1sc(Br)cc1S(=O)(=O)c1ccc(Cl)cc1`, the TGI in test [1] was above 100 µM; in [2], above 100 µM; in test [3] it was above 100 µM; in [4], above 100 µM; in test [5], above 100 µM; in test [7], 57.1 µM. The TGI in test [8] is 52.3 µM; in test [9], 38 µM; in test [10], above 100 µM; in [11], 30.8 µM.

Consider `CCO/C(O)=C(/C(=N)N1CCOCC1)C(=O)Nc1ccc(F)cc1`, for which the TGI in test [1], in test [2], in [3], in test [4], in test [5] and in test [7] was above 100 µM each time. Moreover, the TGI in [8], in test [9], in test [10] and in [11] was above 100 µM throughout.

The values are drawn from PubChem BioAssay (NCI).
